Assay results reported in patent publication US8394828B2 (Janssen Pharmaceutica, NV, priority 2003, dated 2013).
Like-named read-outs stand apart in the source and are kept apart here.

Assays:
[1] = biological target: T1, human VR1 (Homo sapiens, UniProt Q8NER1); test: Human VR1 [3H] RTX binding assay; conditions: for Ki: hVR1; for inhibition at 1 µM: compound at 1 μM
T1 construct: expressed in transfected cells; host or cells: HEK293
Summary of the method: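 Membranes from HEK293 cells transfected with human VR1, about 120 μg protein/ml, incubated with [3H] RTX in HEPES buffer pH 7.4 with 0.25 mg/mL fatty acid-free BSA for 60 min at 37° C. Bound radioactivity measured by scintillation counting. Non-specific binding defined with 200 nM unlabeled RTX.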

[2] = biological target: T1, human VR1; test: Human VR1 functional assay (intracellular Ca++, FLIPR, capsaicin challenge); type: cell-based
Protocol: The functional activity of the test compounds was determined by measuring changes in intracellular calcium concentration using a Ca^++-sensitive fluorescent dye and FLIPR™ technology.
EC50 or IC50 values were determined from dose-response studies.

[3] = hVR1, capsaicin challenge, read-out: FLIPR functional assay IC50 hVR1
[4] = 3H-RTX binding, read-out: 3H-RTX binding assay Ki hVR1
[5] = FLIPR functional assay IC50 hVR1 60 min, 60 min

T1 sequence (Q8NER1 whole entry): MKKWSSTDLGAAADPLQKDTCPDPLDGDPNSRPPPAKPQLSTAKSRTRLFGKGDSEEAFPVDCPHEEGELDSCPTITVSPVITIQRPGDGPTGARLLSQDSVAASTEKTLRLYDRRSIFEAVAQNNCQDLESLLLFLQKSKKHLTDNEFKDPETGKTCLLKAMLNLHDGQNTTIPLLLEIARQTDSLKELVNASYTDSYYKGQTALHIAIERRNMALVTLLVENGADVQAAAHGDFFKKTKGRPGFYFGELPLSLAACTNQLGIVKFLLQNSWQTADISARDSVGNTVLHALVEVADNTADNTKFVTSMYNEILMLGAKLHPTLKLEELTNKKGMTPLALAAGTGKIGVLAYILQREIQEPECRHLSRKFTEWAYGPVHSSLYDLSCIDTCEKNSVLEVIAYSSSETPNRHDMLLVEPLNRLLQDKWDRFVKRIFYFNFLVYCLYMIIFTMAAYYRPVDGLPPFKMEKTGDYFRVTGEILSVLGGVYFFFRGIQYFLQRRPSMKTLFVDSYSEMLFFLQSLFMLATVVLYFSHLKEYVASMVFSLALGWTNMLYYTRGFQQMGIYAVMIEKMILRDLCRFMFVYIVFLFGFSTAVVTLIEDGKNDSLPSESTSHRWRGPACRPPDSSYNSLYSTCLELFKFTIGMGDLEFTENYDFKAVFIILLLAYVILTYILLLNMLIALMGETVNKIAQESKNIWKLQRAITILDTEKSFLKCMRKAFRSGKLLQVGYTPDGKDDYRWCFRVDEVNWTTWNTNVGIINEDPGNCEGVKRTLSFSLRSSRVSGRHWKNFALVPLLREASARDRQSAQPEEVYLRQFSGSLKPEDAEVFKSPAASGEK

inhibition at 1 µM ([1]; 3H-RTX binding) [%] | IC50 [2, 3] [nM] | Ki [1, 4] [nM] | IC50 [2, 5] [nM] | IC50 ([2]; read-out: FLIPR functional assay IC50 hVR1 60 min, 60 min) [nM] | SMILES | Ki ([1]; 3H-RTX binding assay Ki hVR1, 3H-RTX binding) [nM]
93 | 320 | 52 |  |  | CCC(C)(C)c1cc(OC)c(CCC(=O)Nc2cnc3ccccc3c2)c(OC)c1 [3-{4-(1,1-Dimethyl-propyl)-2,6-dimethoxy-phenyl}-N-quinolin-3-yl-propionamide] | 
 | 570 | 31.5 |  |  | CC(C)(c1ccc(CCC(=O)Nc2cnc3ccccc3c2)cc1)C1CCCCC1 [3-{4-(1-Cyclohexyl-1-methyl-ethyl)-phenyl}-N-quinolin-3-yl-propionamide] | 
 | 354 | 111 |  |  | CN(Cc1ccccc1)c1ccc(CCC(=O)Nc2cnc3ccccc3c2)cc1 [3-{4-(Benzyl-methyl-amino)-phenyl}-N-quinolin-3-yl-propionamide] | 
91 |  | 131 | 400 |  | CN(c1ccc(C=CC(=O)Nc2cnc3ccccc3c2)cc1)C1CCCCC1 [3-{4-(Cyclohexyl-methyl-amino)-phenyl}-N-quinolin-3-yl-acrylamide] | 
51 | 3900 | 1170 |  |  | CN(c1ccc(CCC(=O)Nc2cnc3ccccc3c2)cc1)C1CCCCC1 [3-{4-(Cyclohexyl-methyl-amino)-phenyl}-N-quinolin-3-yl-propionamide] | 
 | 500 | 196 |  |  | CCCN(C)c1ccc(CCC(=O)Nc2cnc3ccccc3c2)cc1 [3-{4-(Methyl-propyl-amino)-phenyl}-N-quinolin-3-yl-propionamide] | 
18 | 10000 |  |  |  | CC1CN(c2ccc(C(=O)Nc3cnc4ccccc4c3)cc2)CC(C)O1 (centres unmarked) [4-(2,6-Dimethyl-morpholin-4-yl)-N-quinolin-3-yl-benzamide] | 
91 | 1800 | 86.1 |  |  | CC1CC(C)CN(c2ccc(C(=O)Nc3cnc4ccccc4c3)cc2)C1 (centres unmarked) [4-(3,5-Dimethyl-piperidin-1-yl)-N-quinolin-3-yl-benzamide] | 
99 | 170 | 5.15 | 127 |  | O=C(Nc1cnc2ccccc2c1)c1ccc(N2CC3CCCC(C3)C2)cc1 [4-(3-Aza-bicyclo{3.3.1}non-3-yl)-N-quinolin-3-yl-benzamide] | 
 | 10000 | 100000 |  |  | O=C(Nc1cnc2ccccc2c1)c1ccc(N2CCN(C(=O)Cc3ccccc3)CC2)cc1 [4-(4-Phenylacetyl-piperazin-1-yl)-N-quinolin-3-yl-benzamide] | 
92 | 16000 | 103 | 170 |  | CCCC1CCN(c2ccc(C(=O)Nc3cnc4ccccc4c3)cc2)CC1 [4-(4-Propyl-piperidin-1-yl)-N-quinolin-3-yl-benzamide] | 
1 | 10000 |  |  |  | CC(=O)N(c1ccc(C(=O)Nc2cnc3ccccc3c2)cc1)C1CCCCC1 [4-(Acetyl-cyclohexyl-amino)-N-quinolin-3-yl-benzamide] | 
98 | 2300 | 75.3 | 370 |  | CN(Cc1ccccc1)c1ccc(C(=O)Nc2cnc3ccccc3c2)cc1 [4-(Benzyl-methyl-amino)-N-quinolin-3-yl-benzamide] | 
100 | 400 | 14 |  |  | CN(c1ccc(C(=O)Nc2cnc3ccccc3c2)cc1)C1CCCCCC1 [4-(Cycloheptyl-methyl-amino)-N-quinolin-3-yl-benzamide] | 
 | 300 | 12.6 |  |  | CCN(c1ccc(C(=O)Nc2cnc3ccccc3c2)cc1)C1CCCCC1 [4-(Cyclohexyl-ethyl-amino)-N-quinolin-3-yl-benzamide] | 
 | 560 | 22 | 23 |  | Cc1cc(C(=O)Nc2cnc3ccccc3c2)ccc1N(C)C1CCCCC1 [4-(Cyclohexyl-methyl-amino)-3-methyl-N-quinolin-3-yl-benzamide] | 
12 | 2000 |  |  |  | CN(C(=O)c1ccc(N(C)C2CCCCC2)cc1)c1cnc2ccccc2c1 [4-(Cyclohexyl-methyl-amino)-N-methyl-N-quinolin-3-yl-benzamide] | 
 | 10000 | 68.3 |  |  | Cc1cc(C(=O)Nc2cnc3ccccc3c2)ccc1N(C)CC1CCCCC1 [4-(Cyclohexylmethyl-methyl-amino)-3-methyl-N-quinolin-3-yl-benzamide] | 
104 | 1700 | 15.7 |  |  | CN(CC1CCCCC1)c1ccc(C(=O)Nc2cnc3ccccc3c2)cc1 [4-(Cyclohexylmethyl-methyl-amino)-N-quinolin-3-yl-benzamide] | 
 | 185 | 27.9 |  |  | CN(c1ccc(C(=O)Nc2cnc3ccccc3c2)cc1)C1CCCC1 [4-(Cyclopentyl-methyl-amino)-N-quinolin-3-yl-benzamide] | 

inhibition at 1 µM ([1]; 3H-RTX binding) [%] | IC50 [2, 3] [nM] | Ki [1, 4] [nM] | IC50 [2, 5] [nM] | IC50 ([2]; read-out: FLIPR functional assay IC50 hVR1 60 min, 60 min) [nM] | SMILES | Ki ([1]; 3H-RTX binding assay Ki hVR1, 3H-RTX binding) [nM]
104 |  | 23.1 | 66 |  | CCCCCC=CCCCN(C)c1ccc(C(=O)Nc2cnc3ccccc3c2)cc1 [4-(Dec-4-enyl-methyl-amino)-N-quinolin-3-yl-benzamide] | 
104 | 1900 | 29.8 | 46 |  | CCC=CCCCN(C)c1ccc(C(=O)Nc2cnc3ccccc3c2)cc1 [4-(Hept-4-enyl-methyl-amino)-N-quinolin-3-yl-benzamide] | 
97 | 786 | 83.3 | 100 |  | CCCCN(C)c1ccc(C(=O)Nc2cnc3ccccc3c2)cc1 [4-(Methyl-butyl-amino)-N-quinolin-3-yl-benzamide] | 
101 |  | 36.5 | 48 |  | CCC=CCCCCCN(C)c1ccc(C(=O)Nc2cnc3ccccc3c2)cc1 [4-(Methyl-non-6-enyl-amino)-N-quinolin-3-yl-benzamide] | 
105 |  | 14.7 |  | 190 | CCCCCCCCN(C)c1ccc(C(=O)Nc2cnc3ccccc3c2)cc1 [4-(Octyl-methyl-amino)-N-quinolin-3-yl-benzamide] | 
105 |  | 71.6 | 360 |  | CCCN(CCc1ccccc1)c1ccc(C(=O)Nc2cnc3ccccc3c2)cc1 [4-(Phenethyl-propyl-amino)-N-quinolin-3-yl-benzamide] | 
 | 290 | 18.5 |  |  | O=C(Nc1cnc2ccccc2c1)c1ccc(N2CCCCCCC2)cc1 [4-Azocan-1-yl-N-quinolin-3-yl-benzamide] | 
 | 92 | 11.8 |  |  | O=C(Nc1cnc2ccccc2c1)c1ccc(N2CCCCCCCC2)cc1 [4-Azonan-1-yl-N-quinolin-3-yl-benzamide] | 
100 | 440 | 25.6 |  |  | O=C(Nc1cnc2ccccc2c1)c1ccc(N2CCC(Cc3ccccc3)CC2)nc1 [4-Benzyl-3,4,5,6-tetrahydro-2H-{1,2′}bipyridinyl-5′-carboxylic acid quinolin-3-ylamide] | 
81 | 170 | 124 |  |  | CCCCC1CCC(C(=O)Nc2cnc3ccccc3c2)CC1 (centres unmarked) [4-Butyl-cyclohexanecarboxylic acid quinolin-3-ylamide] | 
 | 10000 | 2160 |  |  | CN(C(=O)c1ccc(NC2CCCCC2)cc1)c1cnc2ccccc2c1 [4-Cyclohexylamino-N-methyl-N-quinolin-3-yl-benzamide] | 
32 | 3200 |  |  |  | O=C(Nc1cnc2ccccc2c1)c1ccc(NC2CCCC2)cc1 [4-Cyclopentylamino-N-quinolin-3-yl-benzamide] | 
51 |  | 441 | 4200 |  | O=C(Nc1cnc2ccccc2c1)c1ccc(N(Cc2ccccc2)Cc2ccccc2)cc1 [4-Dibenzylamino-N-quinolin-3-yl-benzamide] | 
 | 4600 | 241 | 270 |  | CCCCN(CCCC)c1ccc(C(=O)Nc2cnc3ccccc3c2)cc1 [4-Dibutylamino-N-quinolin-3-yl-benzamide] | 
74 |  | 185 | 2900 |  | CCCCCCN(CCCCCC)c1ccc(C(=O)Nc2cnc3ccccc3c2)cc1 [4-Dihexylamino-N-quinolin-3-yl-benzamide] | 
 | 610 | 219 | 166 |  | CCCN(CCC)c1ccc(C(=O)Nc2cnc3ccccc3c2)cc1 [4-Dipropylamino-N-quinolin-3-yl-benzamide] | 
 | 8100 | 876 | 30000 |  | CCCCCNc1ccc(C(=O)Nc2cnc3ccccc3c2)cc1 [4-Pentylamino-N-quinolin-3-yl-benzamide] | 
31 | 9200 |  |  |  | O=C(Nc1cnc2ccccc2c1)c1ccc(NCCc2ccccc2)cc1 [4-Phenethylamino-N-quinolin-3-yl-benzamide] | 
1 | 740 |  |  |  | O=C(Nc1cnc2ccccc2c1)c1ccc(N2CCNCC2)cc1 [4-Piperazin-1-yl-N-quinolin-3-yl-benzamide] | 
93 | 490 | 117 |  |  | CCCC1CCN(c2ccc(C(=O)Nc3cnc4ccccc4c3)cn2)CC1 [4-Propyl-3,4,5,6-tetrahydro-2H-{1,2′}bipyridinyl-5′-carboxylic acid quinolin-3-ylamide] | 

SMILES | inhibition at 1 µM ([1]; 3H-RTX binding) [%] | IC50 [2, 3] [nM] | Ki [1, 4] [nM] | IC50 [2, 5] [nM] | IC50 ([2]; read-out: FLIPR functional assay IC50 hVR1 60 min, 60 min) [nM] | Ki ([1]; 3H-RTX binding assay Ki hVR1, 3H-RTX binding) [nM]
CCCCC(C)(C)c1cc(OC)c(CCC(=O)Nc2cnc3ccccc3c2)c(OC)c1 [3-{4-(1,1-Dimethyl-pentyl)-2,6-dimethoxy-phenyl}-N-quinolin-3-yl-propionamide] | 96 | 1000 |  |  |  | 10.6
CCCN(c1ccc(C(=O)Nc2cnc3ccccc3c2)cc1)C1CCCCC1 [4-(Cyclohexyl-propyl-amino)-N-quinolin-3-yl-benzamide] |  | 10000 | 84.6 |  |  | 
CCCCOc1ccc(C(=O)Nc2cnc3ccccc3c2)cc1 [4-Butoxy-N-quinolin-3-yl-benzamide] |  | 10000 | 155 |  |  | 
